Test system: bacteria in the urine sample
Experiment: Gram classification by treatment impact in microfluidic device (FIGS. 10 to 13)
Assay type: cell-based, Escherichia coli
Conditions: LIN 4 μg/ml and VAN 32 μg/ml at T1=25 min; NaCl 340 mM at 10-22 min
Description: In this embodiment, bacterial cells from a biological sample are exposed to four different treatments (Tr1 to Tr4). […] The combination of LIN/VAN in the first treatment Tr1 is generally effective against gram-positive bacteria but has no or little antibacterial activity against gram-negative bacteria. […] AMC used in the third treatment Tr3 has broad antibacterial activity against both gram-positive and gram-negative bacteria. It, though, generally has slower antibacterial activity against Staphylococcus as compared to against Enterococcus. FOS used in the fourth treatment Tr4 has a broad antibacterial activity against both gram-positive and gram-negative bacteria. It, though, generally has a slower antibacterial activity against Staphylococcus as compared to against Enterococcus. Bacterial cells from the biological sample are preferably exposed to respective treatment in parallel. In this example, a respective impact parameter is determined for each treatment after a respective treatment period (T1 to T5) and then compared to a respective cutoff or threshold value. The respective treatment periods T1 to T5 could be the same but are typically different and adapted to the particular antimicrobial agent or mixture or salt or salt mixture. […] A urine sample was loaded into the microfluidic device 5 and bacterial growth was monitored in the different sets 130 of cell channels. […]

SMILES: [Cl-].[Na+] [NaCl, sodium chloride]
- candidate gram classification indicated by treatment: gram negative

Reference: US20240425898A1, “BACTERIA CLASSIFICATION AND ANALYSIS” (SYSMEX ASTREGO AB, priority 2023, published 2024)
